Measurements taken from patent publication US20090011950A1, “METHOD FOR DETECTING ORAL SQUAMOUS-CELL CARCINOMA AND METHOD FOR SUPPRESSING THE SAME” (priority 2007, published 2009).

Tests used:
[1] = system: PRTFDC1 gene expression in oral squamous-cell carcinoma cell lines not expressing the PRTFDC1 gene; test: RT-PCR of PRTFDC1 gene expression after treatment with demethylating reagent or deacetylation inhibitory agent; type: cell-based; conditions: oral squamous-cell carcinoma cells (NA, HSC-2, ZA)
Experimental: (d) Oral squamous-cell carcinoma cells (NA, HSC-2, and ZA) were treated (+) or not treated (−) with 5-aza-dCyd ([…]) for 5 days or with TSA ([…]) for 24 hours. The results of RT-PCR analysis on the PRTFDC1 gene in the oral squamous-cell carcinoma cells are shown.
To examine the expression levels of the 6 above genes (the PRTFDC1 gene, the e10orf6 gene, the THNSL1 gene, the GPR158 gene, the MYO3A gene, and the GAD2 gene), 18 types of oral squamous-cell carcinoma cell line and normal oral epithelium cells were subjected to reverse transcriptase (RT)-PCR. Specifically, a single-chain cDNA was synthesized from the RNA extracted from each cultured cell line using the SuperScript First-Strand Synthesis System (Invitrogen). PCR was then performed using primer sequences listed in Table 4 (supplementary Table 1). Moreover, a glyceraldehyde-3-phosphate dehydrogenase (GAPDH) gene was used as a control. As a result, complete disappearance of PRTFDC1 mRNA expression could be confirmed in 8 cell lines in which homozygous deletion of chromosomal region 10p12 should not have taken place, as in the case of HSC-6 cells (FIG. 2c). […] Such disappearance of PRTFDC1 mRNA expression in the oral squamous-cell carcinoma cell lines may be due to a mechanism other than genomic deletion, such as an epigenetic phenomenon.
To examine if the suppressed expression of the PRTFDC1 gene was due to DNA methylation, oral squamous-cell carcinoma cell lines not expressing the PRTFDC1 gene were treated using a 1 μM or 5 μM demethylating reagent 5—aza—dCyd for 5 days and/or using deacetylation inhibitory agent TSA (100 ng/ml) for 24 hours. RNAs were extracted from these cells and then PRTFDC1 gene expression was examined by RT-PCR (FIG. 2d).

[2] = system: CpG islands of the PRTFDC1 gene; test: Demethylation of CpG islands by culturing oral squamous-cell carcinoma cells with demethylating reagent; type: cell-based; conditions: oral squamous-cell carcinoma cells cultured in the presence of the reagent

| Structure (SMILES) | PRTFDC1 gene expression (RT-PCR) ([1]; 5-aza-dCyd 1 μM or 5 μM for 5 days) | PRTFDC1 gene expression (RT-PCR) ([1]; 5-aza-dCyd 1 μM or 5 μM for 5 days, listed as 5-azadeoxycytidine) | demethylation of CpG islands [2] | PRTFDC1 gene expression (RT-PCR) ([1]; TSA 100 ng/ml for 24 hours) |
| --- | --- | --- | --- | --- |
| Nc1ncn([C@H]2C[C@H](O)[C@@H](CO)O2)c(=O)n1 [5-aza-dCyd, 5-azadeoxycytidine] | recovers its gene expression | possible to recover the expression level | possible to demethylate | – |
| CC(/C=C/C(=O)NO)=C\[C@@H](C)C(=O)c1ccc(N(C)C)cc1 [TSA] | – | – | – | no differences |
